Results: article PMC10600239, “Selective MCL-1 inhibitor ABBV-467 is efficacious in tumor models but is associated with cardiac troponin increases in patients” (Communications Medicine, 2023)
Values joined by “and” are separate entries in the source; they are usually repeats but may differ in a detail not shown here. Equal values may be shown once.

System: OPM-2 xenografts
Assay: OPM-2 xenograft efficacy (tumor volume, body weight)
Format: in vivo, mouse
Details: for Body Weight (g) Day 21, individual animals / Body Weight Day 21, Mean / Body Weight Day 21, Median / Relative to initial body wt., %: mouse, in vivo, iv
Method: All animal studies were conducted in accordance with the guidelines approved by the Institutional Animal Care and Use Committees of AbbVie. The research protocol was approved by In Vivo Pharmacology at AbbVie prior to study initiation but was not publicly registered or disclosed. Female C.B-17 SCID-beige mice (AMO-1, OPM-2, NCI-H929, and OCI-AML2 xenografts) and female NSG mice (MV4-11-Red.Fluc systemic) were purchased from Charles River Laboratories (Wilmington, MA). Animals were housed in a light cycle-controlled room with HEPA filtration at 22 °C. Animals had nesting and climbing cage topper as the primary environmental enrichment. Animals were inoculated subcutaneously in the right flank with 5 × 10^6 (AMO-1, OPM-2, NCI-H929, and OCI-AML2) or intravenous (IV) with 5 × 10^6 (MV4-11-Red.Fluc). The inoculation volume (0.2 mL) comprised a 50:50 mixture of cells in growth media and Matrigel (BD Biosciences) for subcutaneous injections and 100% phosphate-buffered saline for IV administration. All cell lines used in this publication were authenticated using IDEXX for STR profiling as well as their IMPACT and human IMPACT panels for pathogen screening. Electronic calipers were used to measure the length and width of each tumor 2 to 3 times per week. Tumor volume was estimated by applying the following equation: volume = length × width^2/2. All groups remained blinded during measurements and dosing; only veterinary staff were aware of group identity. When tumors reached approximately 200 mm^3, mice were randomized by match and distributed into treatment and control groups. All xenograft trials were conducted using 5 to 10 mice per group, and all mice were ear tagged and monitored individually throughout the studies. Any animal with a tumor above 2000 mm^3 or 15% loss in body weight was euthanized and removed from the study. Tumor burden in the systemic MV4-11-Red.Fluc experiment was measured using an IVIS® spectrum from PerkinElmer by taking the total photon flux of the entire dorsal side of an individual mouse. Ten minutes prior to imaging, animals received intraperitoneally 0.2 mL of a 15-mg/mL solution of D-Luciferin (PerkinElmer, Catalog #122799) formulated in 100% phosphate-buffered saline. Animals were anesthetized using 3.5% isoflurane and maintained using 2%. Six days after inoculation, animals were imaged and randomized into vehicle and treatment groups at a total flux of ~1 × 10^8. A background control mouse that was tumor naive but received D-Luciferin was placed in the upper left corner of each image. The total flux from this animal was subtracted from the total flux of each animal present in the image.
For in vivo studies, maximal tumor growth inhibition (TGI) was calculated as the greatest treatment response using the following equation: Maximal TGI = (1 − mean tumor volume of the treated group/mean tumor volume of the vehicle control group) × 100. The tumor growth delay (TGD) percentage was determined as the percentage increase of the median time period for the treatment group to reach an arbitrary tumor volume of 1000 mm^3 relative to the vehicle control group. […] A power analysis was conducted using historical data to determine the number of animals required to yield significance of 0.05 at a 30% difference. There were no animals excluded. Data from experiments in vivo were analyzed using the student’s t-test for TGI values and the Mann–Whitney U test for TGD using Excel and GraphPad Prism. Fisher’s exact test was used to probe significance of differences in response frequency.

[1] = OPM-2 (DSMZ) xenograft, SCID-beige mouse, 25 mg/kg q7dx3 IV, Day 63
[2] = OPM-2 (DSMZ) xenograft, SCID-beige mouse, 25 mg/kg q7dx3 IV, Day 70
[3] = OPM-2 (DSMZ) xenograft, SCID-beige mouse, 25 mg/kg q7dx3 IV, Day 77
[4] = OPM-2 (DSMZ) xenograft, SCID-beige mouse, 25 mg/kg q7dx3 IV, Day 106
[5] = OPM-2 (DSMZ) xenograft, SCID-beige mouse, 25 mg/kg q7dx3 IV, Day 113
[6] = OPM-2 (DSMZ) xenograft, SCID-beige mouse, 25 mg/kg q7dx3 IV, Day 120
[7] = individual animals, 6.25 mg/kg q7dx3 IV, Day 37, OPM-2 (DSMZ) xenograft, SCID-beige mouse, 6.25 mg/kg

## Cc1c(Cl)c2c(Cl)c(C)c1-c1c(-c3ccc(F)cc3)sc3ncnc(c13)O[C@@H](C(=O)O)Cc1cc(ccc1OCc1ccnc(-c3ccc(OC[C@H]4COCCO4)cc3)n1)OC[C@@H](CN1CCN(C)CC1)O2 [Compound A-1747745]
OPM-2 (DSMZ) xenograft, SCID-beige mice, 25 mg/kg q7dx3 IV, Day 21, mean(T)/mean(C)
  Body Weight Day 21, % T/C (mean): 105.36%
OPM-2 (DSMZ) xenograft, SCID-beige mice, 25 mg/kg q7dx3 IV, Day 21, median(T)/median(C)
  Body Weight Day 21, % T/C (median): 105.36%
[1]
  Tumor Volume (mm³) Day 63 (individual animals): 4 mm³
  Tumor Volume Day 63, Mean: 4.00 mm³
  Tumor Volume Day 63, Median: 4.00 mm³
[2]
  Tumor Volume (mm³) Day 70 (individual animals): 4 mm³
  Tumor Volume Day 70, Mean: 4.00 mm³
  Tumor Volume Day 70, Median: 4.00 mm³
[3]
  Tumor Volume (mm³) Day 77 (individual animals): 4 mm³
  Tumor Volume Day 77, Mean: 4.00 mm³
  Tumor Volume Day 77, Median: 4.00 mm³
[4]
  Tumor Volume (mm³) Day 106 (individual animals): 4 mm³
  Tumor Volume Day 106, Mean: 4.00 mm³
  Tumor Volume Day 106, Median: 4.00 mm³
[5]
  Tumor Volume (mm³) Day 113 (individual animals): 4 mm³
  Tumor Volume Day 113, Mean: 4.00 mm³
  Tumor Volume Day 113, Median: 4.00 mm³
[6]
  Tumor Volume (mm³) Day 120 (individual animals): 4 mm³
  Tumor Volume Day 120, Mean: 4.00 mm³
  Tumor Volume Day 120, Median: 4.00 mm³
Group mean, 6.25 mg/kg q7dx3 IV, Day 37, OPM-2 (DSMZ) xenograft, SCID-beige mouse
  Tumor Volume Day 37, Mean: 1067.37 mm³
Group mean, 25 mg/kg q7dx3 IV, Day 37, OPM-2 (DSMZ) xenograft, SCID-beige mouse
  Tumor Volume Day 37, Mean: 4.00 mm³
Group mean, 25 mg/kg q7dx3 IV, Day 41, SCID-beige mice
  Tumor Volume Day 41, Mean: 4.00 mm³
Group mean, 25 mg/kg q7dx3 IV, Day 44, SCID-beige mice
  Tumor Volume Day 44, Mean: 4.00 mm³
Group mean, 25 mg/kg q7dx3 IV, OPM-2 (DSMZ) xenograft, SCID-beige mice, Day 86
  Tumor Volume (mm³) Day 86, Mean: 4.00 mm³
Group mean, 25 mg/kg q7dx3 IV, OPM-2 (DSMZ) xenograft, SCID-beige mice, Day 93
  Tumor Volume (mm³) Day 93, Mean: 4.00 mm³
Group mean, 25 mg/kg q7dx3 IV, OPM-2 (DSMZ) xenograft, SCID-beige mice, Day 101
  Tumor Volume (mm³) Day 101, Mean: 4.00 mm³
Group mean, 25 mg/kg q7dx3 IV, OPM-2 (DSMZ) xenograft, SCID-beige mouse, Day 51
  Tumor Volume (mm³) Day 51, Mean: 4.00 mm³
Group mean, 25 mg/kg q7dx3 IV, OPM-2 (DSMZ) xenograft, SCID-beige mouse, Day 57
  Tumor Volume (mm³) Day 57, Mean: 4.00 mm³
Group median, 6.25 mg/kg q7dx3 IV, Day 37, OPM-2 (DSMZ) xenograft, SCID-beige mouse
  Tumor Volume Day 37, Median: 1120.03 mm³
Group median, 25 mg/kg q7dx3 IV, Day 37, OPM-2 (DSMZ) xenograft, SCID-beige mouse
  Tumor Volume Day 37, Median: 4.00 mm³
Group median, 25 mg/kg q7dx3 IV, Day 41, SCID-beige mice
  Tumor Volume Day 41, Median: 4.00 mm³
Group median, 25 mg/kg q7dx3 IV, Day 44, SCID-beige mice
  Tumor Volume Day 44, Median: 4.00 mm³
Group median, 25 mg/kg q7dx3 IV, OPM-2 (DSMZ) xenograft, SCID-beige mice, Day 86
  Tumor Volume (mm³) Day 86, Median: 4.00 mm³
Group median, 25 mg/kg q7dx3 IV, OPM-2 (DSMZ) xenograft, SCID-beige mice, Day 93
  Tumor Volume (mm³) Day 93, Median: 4.00 mm³
Group median, 25 mg/kg q7dx3 IV, OPM-2 (DSMZ) xenograft, SCID-beige mice, Day 101
  Tumor Volume (mm³) Day 101, Median: 4.00 mm³
Group median, 25 mg/kg q7dx3 IV, OPM-2 (DSMZ) xenograft, SCID-beige mouse, Day 51
  Tumor Volume (mm³) Day 51, Median: 4.00 mm³
Group median, 25 mg/kg q7dx3 IV, OPM-2 (DSMZ) xenograft, SCID-beige mouse, Day 57
  Tumor Volume (mm³) Day 57, Median: 4.00 mm³
[7]
  Mortality Observation Day 37: GRPX and EUTV (3×)
  Tumor Volume (mm³) Day 37: 830 mm³ and 1099 mm³ and 1199 mm³ and 1141 mm³
Individual animals, 25 mg/kg q7dx3 IV, Day 37, OPM-2 (DSMZ) xenograft, SCID-beige mouse
  Tumor Volume (mm³) Day 37: 4 mm³
Individual animals, 25 mg/kg q7dx3 IV, Day 41, SCID-beige mice
  Tumor Volume (mm³) Day 41: 4 mm³
Individual animals, 25 mg/kg q7dx3 IV, Day 44, SCID-beige mice
  Tumor Volume (mm³) Day 44: 4 mm³
Individual animals, 25 mg/kg q7dx3 IV, OPM-2 (DSMZ) xenograft, SCID-beige mice, Day 86
  Tumor Volume (mm³) Day 86: 4 mm³
Individual animals, 25 mg/kg q7dx3 IV, OPM-2 (DSMZ) xenograft, SCID-beige mice, Day 93
  Tumor Volume (mm³) Day 93: 4 mm³
Individual animals, 25 mg/kg q7dx3 IV, OPM-2 (DSMZ) xenograft, SCID-beige mice, Day 101
  Tumor Volume (mm³) Day 101: 4 mm³
Individual animals, 25 mg/kg q7dx3 IV, OPM-2 (DSMZ) xenograft, SCID-beige mouse, Day 51
  Tumor Volume (mm³) Day 51: 4 mm³
Individual animals, 25 mg/kg q7dx3 IV, OPM-2 (DSMZ) xenograft, SCID-beige mouse, Day 57
  Tumor Volume (mm³) Day 57: 4 mm³
6.25 mg/kg
  Body Weight (g) Day 21, individual animals: 21 g
  Body Weight Day 21, Mean: 21.00 g
  Body Weight Day 21, Median: 21.00 g
  Relative to initial body wt., %: 0.00%
25 mg/kg
  Body Weight (g) Day 21, individual animals: 22 g
  Body Weight Day 21, Mean: 22.13 g
  Body Weight Day 21, Median: 22.13 g
  Relative to initial body wt., %: 0.00%
